The supplement of paper PMC10307832

Tests used:
Experiment in all cases: relative viability (nuclei count vs DMSO), 5 days (fraction); higher = more cells survive
Carfilzomib + Pictilisib = compound: CC(C)C[C@H](NC(=O)[C@H](CCc1ccccc1)NC(=O)CN1CCOCC1)C(=O)N[C@@H](Cc1ccccc1)C(=O)N[C@@H](CC(C)C)C(=O)[C@@]1(C)CO1 [Carfilzomib] + CS(=O)(=O)N1CCN(Cc2cc3nc(-c4cccc5[nH]ncc45)nc(N4CCOCC4)c3s2)CC1 [Pictilisib] (partner 1 µM)
How it was run: (§1)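 Cells from lung cancer lines were seeded into 1536-well plates and, one day later, dosed by pin tool. Treatments were either a single drug or a fixed dose of an anchor drug with five library-drug doses (not always all listed) in √10 steps. After 5 days, nuclei were stained in a one-step fixation (final 0.05% Triton X-100, 1% formaldehyde, 1 ug/ml Hoechst) and counted on 4× images, and relative viability is the treated-to-vehicle nuclei ratio, as the median of duplicate plates.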

Carfilzomib + Tozasertib = compound: CC(C)C[C@H](NC(=O)[C@H](CCc1ccccc1)NC(=O)CN1CCOCC1)C(=O)N[C@@H](Cc1ccccc1)C(=O)N[C@@H](CC(C)C)C(=O)[C@@]1(C)CO1 [Carfilzomib] + Cc1cc(Nc2cc(N3CCN(C)CC3)nc(Sc3ccc(NC(=O)C4CC4)cc3)n2)n[nH]1 [Tozasertib] (partner 0.1 µM)
How it was run: as §1

Carfilzomib + Alpelisib = compound: CC(C)C[C@H](NC(=O)[C@H](CCc1ccccc1)NC(=O)CN1CCOCC1)C(=O)N[C@@H](Cc1ccccc1)C(=O)N[C@@H](CC(C)C)C(=O)[C@@]1(C)CO1 [Carfilzomib] + Cc1nc(NC(=O)N2CCC[C@H]2C(N)=O)sc1-c1ccnc(C(C)(C)C(F)(F)F)c1 [Alpelisib] (partner 2 µM)
How it was run: as §1

Crizotinib + Pemetrexed = compound: C[C@@H](Oc1cc(-c2cnn(C3CCNCC3)c2)cnc1N)c1c(Cl)ccc(F)c1Cl [Crizotinib] + Nc1nc2[nH]cc(CCc3ccc(C(=O)N[C@@H](CCC(=O)O)C(=O)O)cc3)c2c(=O)[nH]1 [Pemetrexed] (partner 0.2 µM)
How it was run: as §1

Olaparib + Tozasertib = compound: O=C(c1cc(Cc2n[nH]c(=O)c3ccccc23)ccc1F)N1CCN(C(=O)C2CC2)CC1 [Olaparib] + Cc1cc(Nc2cc(N3CCN(C)CC3)nc(Sc3ccc(NC(=O)C4CC4)cc3)n2)n[nH]1 [Tozasertib] (partner 0.1 µM)
How it was run: as §1

NCI-H1793 gave a relative viability (Carfilzomib + Pictilisib; first compound 0.003162 µM) of 0.328, a relative viability (Carfilzomib + Pictilisib; first compound 0.01 µM) of 0.293 and a relative viability (Carfilzomib + Pictilisib; first compound 0.03162 µM) of 0.335. It also gave a relative viability (Carfilzomib + Pictilisib; first compound 0.1 µM) of 0.248, a relative viability (Carfilzomib + Tozasertib; first compound 0.003162 µM) of 0.469 and a relative viability (Carfilzomib + Tozasertib; first compound 0.01 µM) of 0.327. It also gave a relative viability (Carfilzomib + Tozasertib; first compound 0.03162 µM) of 0.292, a relative viability (Carfilzomib + Tozasertib; first compound 0.1 µM) of 0.123 and a relative viability (Carfilzomib + Alpelisib; first compound 0.003162 µM) of 0.767. It also gave a relative viability (Carfilzomib + Alpelisib; first compound 0.01 µM) of 0.804, a relative viability (Carfilzomib + Alpelisib; first compound 0.03162 µM) of 0.68 and a relative viability (Carfilzomib + Alpelisib; first compound 0.1 µM) of 0.356. It also gave a relative viability (Crizotinib + Pemetrexed; first compound 0.03162 µM) of 1.04, a relative viability (Crizotinib + Pemetrexed; first compound 0.1 µM) of 0.902 and a relative viability (Crizotinib + Pemetrexed; first compound 1 µM) of 1.2. The relative viability (Olaparib + Tozasertib; first compound 0.08 µM) was 0.324, the relative viability (Olaparib + Tozasertib; first compound 0.253 µM) was 0.279 and the relative viability (Olaparib + Tozasertib; first compound 2.53 µM) was 0.409. It also gave a relative viability (Olaparib + Tozasertib; first compound 8 µM) of 0.358.
